Assay results as given in patent publication US7163959B2, “Prostagladin derivatives for the treatment of glaucoma or ocular hypertension” (priority 1990, dated 2007).

Tests used:
cynomolgus monkeys = experiment: Intraocular pressure (pneumatonometer) in cynomolgus monkeys; type: in vivo, cynomolgus monkey; settings: for Intraocular pressure, time after administration 0 hours / Intraocular pressure, time after administration 1–2 hours / Intraocular pressure, time after administration 3–4 hours / Intraocular pressure, time after administration 6 hours: cynomolgus monkeys, experimental eye (E), topical, dose μg: PGF2α-IE 1.5, (1) 3.2, (2) 3.2, (9) 10.4, (10) 3.1, (8) 3.2; for Intraocular pressure, time after administration 0 hours: baseline; for Intraocular pressure lowering effect, in words: monkeys (primates), topical (Table V)
Protocol: (§1) The intraocular pressur (IOP) was determined in animals with a pneumatonometer (Digilab Modular One™, Bio Rad), specially calibrated for the eye of the particular species. The cornea was anaesthetized with 1–2 drops of oxibuprocain before each XOP measurement. In healthy human volunteers IOP was measured with applanation tonometry or with an air puff tonometer (Keeler pulsair). For applanation tonometry either a pneumatonometer (Digilab) or Goldmann's applanation tonometer mounted on a slit lamp microscope was used. The cornea was anaesthetized with oxibuprocain before each measurement with applanation tonometry. No local anaesthesia was employed before measurement with the pulsair tonometer.

rabbit eye = experiment: Conjunctival hyperemia after topical application in rabbits; type: in vivo; settings: for Degree of hyperemia: topical, conjunctival hyperemia scale 0 to 4, dose 0.5 μg, PGF2α-IE 0.1 μg; for Conjunctival hyperemia, in words: topical (Table IV)
Protocol: Conjunctival hyperemia after topical application of the test substances was evaluated in rabbits. […] Conjunctival hyperemia was evaluated on a scale from 0 to 4, 0 indicating complete absence of any hyperemia, and 4 indicating marked hyperemia with conjunctival chemosis.

cat eye = experiment: Ocular discomfort (irritation) after topical application in cats; settings: topical (Table III)
Protocol: The ocular discomfort after application of the test substances was evaluated in cats. The behaviour of cats after topical application of the test drug was followed and ocular discomfort was graded on a scale from 0 to 3, 0 indicating complete absence of any signs of discomfort, and 3 indicating maximal irritation as obvious from complete lid closure.
Therefore, the cat eye, being very sensitive to prostaglandins was used for evaluating ocular discomfort and the rabbit eye with pronounced tendency to hyperemic reactions was used for evaluating conjunctival and episcleral hyperemia.

healthy human volunteers [1] = experiment: Ocular side effects (discomfort, hyperemia) in healthy human volunteers; settings: for Irritating effect (ocular discomfort), in words: healthy human volunteers; for Conjunctival/episcleral hyperemia, in words: in man
healthy human volunteers [2] = experiment: Intraocular pressure (tonometry) in healthy human volunteers; type: in vivo; settings: for Effect on intraocular pressure, in words: healthy human volunteers (Table VI); for Intraocular pressure, time after administration 0 hours / Intraocular pressure, time after administration 4 hours / Intraocular pressure, time after administration 6 hours / Intraocular pressure, time after administration 8 hours: healthy human volunteers, Exp eye, dose μg: (2) 1, (7) 10, (9) 1, (10) 5; for Intraocular pressure, time after administration 0 hours: baseline; for Intraocular pressure, time after administration 0 hours / Intraocular pressure, time after administration 4 hours / Intraocular pressure, time after administration 6 hours: (3) 10
Protocol: as §1

cat eyes = experiment: Intraocular pressure (pneumatonometer) in cats; type: in vivo; settings: for Intraocular pressure, time after administration 0 hours / Intraocular pressure, time after administration 1–2 hours / Intraocular pressure, time after administration 3–4 hours / Intraocular pressure, time after administration 6 hours: cat eyes, experimental eye (E), topical, dose μg: (4) 5, (20) 1; for Intraocular pressure, time after administration 0 hours: baseline; for Intraocular pressure lowering effect, in words: cats, topical (Table V)
Protocol: as §1

Row | Molecule | Intraocular pressure, time after administration 0 hours (cynomolgus monkeys) | Intraocular pressure, time after administration 1–2 hours (cynomolgus monkeys) [mmHg] | Intraocular pressure, time after administration 3–4 hours (cynomolgus monkeys) [mmHg] | Intraocular pressure, time after administration 6 hours (cynomolgus monkeys) | Degree of hyperemia (rabbit eye) | Ocular irritation (discomfort), in words (cat eye) | Irritating effect (ocular discomfort), in words (healthy human volunteers [1]) | Effect on intraocular pressure, in words (healthy human volunteers [2]) | Intraocular pressure, time after administration 0 hours (healthy human volunteers [2]) [mmHg] | Intraocular pressure, time after administration 4 hours (healthy human volunteers [2]) [mmHg] | Intraocular pressure, time after administration 6 hours (healthy human volunteers [2]) [mmHg] | Intraocular pressure, time after administration 8 hours (healthy human volunteers [2]) [mmHg] | other results
1 | CCCCC[C@H](O)/C=C/[C@@H]1[C@@H](C/C=C\CCCC(=O)OC(C)C)[C@@H](O)C[C@H]1O [PGF2α-isopropylester, reference compound] | E 11.4 ± 0.7 mmHg | 8.3 ± 0.5 | 8.0 ± 0.6 | 9.3 ± 0.8 mmHg | 2.8 ± 0.2 |  |  |  |  |  |  |  | 
2 | CC(C)OC(=O)CCC/C=C\C[C@H]1C(=O)C=C[C@@H]1CC[C@@H](O)CCc1ccccc1 [Substance 6, 13,14-dihydro-17-phenyl-18,19,20-trinor-PGA2-isopropylester] |  |  |  |  | 0.3 ± 0.3 | no or very little irritating effect |  |  |  |  |  |  | Conjunctival hyperemia, in words (rabbit eye): advantageous in this respect
3 | 16-[4-(methoxy)-phenyl]-17,18,19,20-tetranor-PGF2α-isopropylester [Substance 8] | E 11.2 ± 0.9 mmHg | 10.5 ± 1.3 | 9.8 ± 1.4 | 9.2 ± 0.9 mmHg |  |  |  |  |  |  |  |  | 
4 | CC(C)OC(=O)CCC/C=C\C[C@@H]1[C@@H](CC[C@@H](O)CCc2ccccc2)[C@H](O)C[C@@H]1O [Substance 9, 13,14-dihydro-17-phenyl-18,19,20-trinor-PGF2α-isopropylester] | E 11.1 ± 0.9 mmHg | 8.3 ± 0.6 | 6.9 ± 0.4 | 7.7 ± 0.8 mmHg | 1.3 ± 0.3 |  | none of the compounds had any significant irritating effect | significantly reduced the intraocular pressure | 14.2 ± 0.5 | 13.3 ± 1.1 | 12.2 ± 0.4 | 12.5 ± 0.9 | Conjunctival hyperemia, in words (rabbit eye): advantageous in this respect; Conjunctival/episcleral hyperemia, in words (healthy human volunteers [1]): very little if any conjunctival/episcleral hyperemia
5 | CC(C)OC(=O)CCC/C=C\C[C@@H]1[C@@H](/C=C/[C@@H](O)CCc2ccccc2)[C@H](O)C[C@@H]1O [Substance 2, 17-phenyl-18,19,20-trinor-PGF2α-isopropylester] | E 12.8 ± 0.6 mmHg | 11.9 ± 0.5 | 8.6 ± 0.3 | 9.5 ± 0.7 mmHg | 2.0 ± 0.3 | complete loss of ocular irritation | none of the compounds had any significant irritating effect | significantly reduced the intraocular pressure | 11.9 ± 1.7 | 11.0 ± 0.9 | 10.1 ± 0.7 | 9.8 ± 0.7 | Intraocular pressure lowering effect, in words (cynomolgus monkeys): retained IOP lowering effect
6 | CC(C)OC(=O)CCC/C=C\C[C@@H]1[C@@H](/C=C/C(=O)CCc2ccccc2)[C@H](O)C[C@@H]1O [Substance 3, 15-dehydro-17-phenyl-18,19,20-trinor-PGF2α-isopropylester] |  |  |  |  | 0.7 ± 0.3 |  | none of the compounds had any significant irritating effect | significantly reduced the intraocular pressure | 17.7 ± 0.6 | 14.6 ± 0.2 | 13.6 ± 0.7 |  | Conjunctival hyperemia, in words (rabbit eye): advantageous in this respect; Conjunctival/episcleral hyperemia, in words (healthy human volunteers [1]): very little if any conjunctival/episcleral hyperemia
7 | CC(C)OC(=O)CCC/C=C\C[C@@H]1[C@@H](/C=C/[C@H](O)CCc2ccccc2)[C@H](O)C[C@@H]1O [Substance 7, 15-(R)-17-phenyl-18,19,20-trinor-PGF2α-isopropylester] |  |  |  |  | 2.0 ± 0.0 |  | none of the compounds had any significant irritating effect | significantly reduced the intraocular pressure | 12.9 ± 0.9 | 11.8 ± 0.6 | 11.0 ± 0.3 | 11.2 ± 1.3 | 
8 | CCCCCC(C=CC1C(O)CC(=O)C1CC=CCCCC(=O)OC(C)C)OC(=O)CC (stereo not shown) [15-propionate-PGE2-IE, reference compound] |  |  |  |  | 2.7 ± 0.3 |  |  |  |  |  |  |  | 
9 | CC(C)OC(=O)CCC/C=C\C[C@@H]1[C@@H](/C=C/[C@@H](O)COc2ccccc2)[C@H](O)C[C@@H]1O [Substance 4, 16-phenoxy-17,18,19,20-tetranor-PGF2α-isopropylester] |  |  |  |  |  |  |  |  |  |  |  |  | Intraocular pressure, time after administration 0 hours (cat eyes): E 20.5 ± 1.2 mmHg; Intraocular pressure, time after administration 1–2 hours (cat eyes): 25.7 ± 1.2 mmHg; Intraocular pressure, time after administration 3–4 hours (cat eyes): 19.2 ± 1.8 mmHg; Intraocular pressure, time after administration 6 hours (cat eyes): 15.0 ± 1.2 mmHg; Intraocular pressure lowering effect, in words (cat eyes): effectively lowers the intraocular pressure
10 | 19-phenyl-20-nor-PGF2α-isopropylester [Substance 20] |  |  |  |  |  |  |  |  |  |  |  |  | Intraocular pressure, time after administration 0 hours (cat eyes): E 16.9 ± 1.0 mmHg; Intraocular pressure, time after administration 1–2 hours (cat eyes): 16.6 ± 0.7 mmHg; Intraocular pressure, time after administration 3–4 hours (cat eyes): 15.8 ± 0.8 mmHg; Intraocular pressure, time after administration 6 hours (cat eyes): 18.1 ± 1.2 mmHg; Intraocular pressure lowering effect, in words (cat eyes): reduced the intraocular pressure
11 | CC(C)OC(=O)CCC/C=C\C[C@H]1C(=O)C[C@@H](O)[C@@H]1/C=C/[C@@H](O)CCc1ccccc1 [Substance 5, 17-phenyl-18,19,20-trinor-PGE2-isopropylester] |  |  |  |  | 2.7 ± 0.2 | no or very little irritating effect |  |  |  |  |  |  | 
12 | 18-phenyl-19,20-dinor-PGF2α-isopropylester [Substance 10] | E 9.7 ± 0.9 mmHg | 9.6 ± 1.1 | 9.6 ± 0.7 | 8.8 ± 0.9 mmHg |  |  | none of the compounds had any significant irritating effect | significantly reduced the intraocular pressure | 14.4 ± 1.0 | 12.2 ± 1.1 | 12.4 ± 1.2 | 11.9 ± 0.7 | Intraocular pressure lowering effect, in words (cynomolgus monkeys): reduced the intraocular pressure
13 | 16-phenyl-17,18,19,20-tetranor-PGF2α-isopropylester [Substance 1] | E 12.7 ± 1.1 mmHg | 11.8 ± 1.1 | 9.1 ± 0.8 | 8.4 ± 0.7. mmHg | 1.3 ± 0.9 | irritating |  |  |  |  |  |  | Ocular irritation (discomfort), in words (cat eye; listed as 16-phenyl-17,18,19,20-tetranor-PGF2α-IE): clear ocular discomfort; Intraocular pressure lowering effect, in words (cynomolgus monkeys): reduced the intraocular pressure
